Like-named read-outs stand apart in the source and are kept apart here. Where only a bound is given, the exact number is not on record here.

Test [1] concerns the target GSK3α (GST-full length GSK3α) (Homo sapiens (Human), UniProt P49840). The test can be described thus: GSK3α TR-FRET kinase assay. The class given is biochemical. The method in brief: (§1)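 Readout: anti-pSer641 Tb antibody/streptavidin-d2 signal after 60 min, expressed as 665/615 ratio and fitted versus log concentration for IC50. Enzyme: 1 nM GST-GSK3 (α or β), compound-preincubated 30 min. Conditions: pH 7.5 Tris buffer with MgCl2, DTT, BSA; ATP at 4 or 2 μM, or 1 mM; 100 min.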

The target of test [2] is GSK3b (GST-full length GSK3b) (Homo sapiens (Human), UniProt P49841). The test can be described thus: GSK3b TR-FRET kinase assay. The class given is biochemical. The essentials: as §1
(In TR-FRET formats the signal depends on donor and acceptor labels being close together.)

[3] abbreviates: 1 nM GSK3α, 4 μM ATP, 30 minute preincubation, geometric mean, read-out: GSK3-A TR-FRET BIOCHEMICAL (TR-FRET), GMean, IC50.
The mark [4] stands for this setting: 1 nM GSK3b, 2 μM ATP, 30 minute preincubation, geometric mean, read-out: GSK3-B TR-FRET BIOCHEMICAL (TR-FRET), GMean, IC50.
The mark [5] stands for this setting: 1 nM GSK3α, 4 μM ATP, 30 minute preincubation, Table 16, read-out: GSK3-A TR-FRET BIOCHEMICAL (TR-FRET).
The mark [6] stands for this setting: 1 nM GSK3b, 2 μM ATP, 30 minute preincubation, Table 16, read-out: GSK3-B TR-FRET BIOCHEMICAL (TR-FRET).
Where [7] appears, read: read-out: GSK3-A (TR-FRET 1 mM ATP), GMean, IC50, 1 mM ATP, geometric mean.
[8] abbreviates: read-out: GSK3-B (TR-FRET 1 mM ATP), GMean, IC50, 1 mM ATP, geometric mean.
[9] abbreviates: 1 nM GSK3α, 4 μM ATP, 30 minute preincubation, read-out: GSK3-A TR-FRET BIOCHEMICAL (TR-FRET), IC50.
Where [10] appears, read: GSK3-A (TR-FRET 1 mM ATP), GMean, IC50, 1 mM ATP, geometric mean.
Setting [11] is: 1 nM GSK3b, 2 μM ATP, 30 minute preincubation, read-out: GSK3-B TR-FRET BIOCHEMICAL (TR-FRET), IC50.
[12] abbreviates: GSK3-B (TR-FRET 1 mM ATP), GMean, IC50, 1 mM ATP, geometric mean.

Sequence of GSK3α (GST-full length GSK3α) (P49840 whole entry): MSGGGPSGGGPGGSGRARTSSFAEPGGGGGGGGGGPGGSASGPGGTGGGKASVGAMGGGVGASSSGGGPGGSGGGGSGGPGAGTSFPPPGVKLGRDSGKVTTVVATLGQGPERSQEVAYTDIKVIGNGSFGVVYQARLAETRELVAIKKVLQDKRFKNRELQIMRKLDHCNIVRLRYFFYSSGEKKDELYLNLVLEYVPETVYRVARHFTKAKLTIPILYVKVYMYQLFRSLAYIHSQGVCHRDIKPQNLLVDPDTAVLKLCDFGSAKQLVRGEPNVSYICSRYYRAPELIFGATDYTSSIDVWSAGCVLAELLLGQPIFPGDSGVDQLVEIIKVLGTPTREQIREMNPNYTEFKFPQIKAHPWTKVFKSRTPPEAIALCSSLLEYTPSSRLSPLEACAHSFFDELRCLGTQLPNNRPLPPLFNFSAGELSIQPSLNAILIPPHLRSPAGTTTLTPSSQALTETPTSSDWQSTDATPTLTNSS
Sequence of GSK3b (GST-full length GSK3b) (P49841 whole entry): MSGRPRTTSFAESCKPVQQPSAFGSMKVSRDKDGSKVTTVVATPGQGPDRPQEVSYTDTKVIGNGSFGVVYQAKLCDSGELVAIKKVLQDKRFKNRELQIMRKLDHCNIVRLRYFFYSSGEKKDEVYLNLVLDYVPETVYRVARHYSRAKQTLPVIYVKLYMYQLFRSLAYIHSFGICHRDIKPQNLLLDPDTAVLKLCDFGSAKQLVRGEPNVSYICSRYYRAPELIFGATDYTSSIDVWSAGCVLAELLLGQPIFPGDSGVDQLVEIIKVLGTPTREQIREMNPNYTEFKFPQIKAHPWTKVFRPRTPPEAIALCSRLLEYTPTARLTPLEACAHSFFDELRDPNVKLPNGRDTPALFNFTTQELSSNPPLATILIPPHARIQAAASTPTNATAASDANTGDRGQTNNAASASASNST

Consider `CCC1(c2cccc(-c3ccnc(C)c3)c2)C2=C(CC(C)(C)NC2=O)Nc2n[nH]c(C)c21` (stereo not drawn) [Compound 948414], for which the IC50 in test [1] (setting [3]) and in test [2] (setting [4]) was over 5 µM in each case.
With `Cc1cc([C@H]2CC[C@@]3(CC2)C2=C(CC(C)(C)CC2=O)Nc2n[nH]cc23)ccn1` [Compound 948415], the IC50 in test [1] (setting [5]) and in test [2] (setting [6]) was at most 0.1 µM each time.
For the compound `Cc1cc([C@H]2CC[C@]3(CC2)C2=C(CC(C)(C)CC2=O)Nc2n[nH]cc23)ccn1` [Compound 948416], the IC50 is at most 0.1 µM in test [1] (setting [5]) and 0.1 to 1 µM in test [2] (setting [6]).
`CC[C@]1(c2cccc(S(=O)(=O)C(C)C)c2)C2=C(CC(C)(C)NC2=O)Nc2n[nH]c(C(F)(F)F)c21` [Compound 948419]: the IC50 in test [1] (setting [3]), in test [1] (setting [7]), in test [2] (setting [4]) and in test [2] (setting [8]) was at most 0.1 µM throughout.
Consider `CC[C@@]1(c2cccc(S(C)(=O)=O)c2)C2=C(CC(C)(C)NC2=O)Nc2n[nH]c(C(F)(F)F)c21` [Compound 948422], for which the IC50 in test [1] (setting [3]) and in test [2] (setting [4]) was 0.1 to 1 µM throughout.
With `CC[C@@]1(c2cccc(S(=O)(=O)C(C)C)c2)C2=C(CC(C)(C)NC2=O)Nc2n[nH]c(C(F)(F)F)c21` [Compound 948423], the IC50 in test [1] (setting [3]) is at most 0.1 µM; in test [2] (setting [4]), 0.1 to 1 µM.
For `CC(=O)N1C[C@]2(C[C@]3(CO2)C2=C(CC(C)(C)CC2=O)Nc2n[nH]cc23)[C@H]1C` [Compound 948437], the IC50 in test [1] (setting [9]), in test [1] (setting [10]), in test [2] (setting [11]) and in test [2] (setting [12]) was at most 0.1 µM each time.
As for `CC(=O)N1C[C@@]2(C[C@]3(CO2)C2=C(CC(C)(C)CC2=O)Nc2n[nH]cc23)[C@@H]1C` [Compound 948438], the IC50 in test [1] (setting [9]) and in test [2] (setting [11]) was at most 0.1 µM in each case.
As to `CC(=O)N1C[C@]2(C[C@@]3(CO2)C2=C(CC(C)(C)CC2=O)Nc2n[nH]cc23)[C@H]1C` [Compound 948439], the IC50 in test [1] (setting [9]), in test [1] (setting [10]), in test [2] (setting [11]) and in test [2] (setting [12]) was at most 0.1 µM in each case.
As for `CC(=O)N1C[C@@]2(C[C@@]3(CO2)C2=C(CC(C)(C)CC2=O)Nc2n[nH]cc23)[C@@H]1C` [Compound 948440], the IC50 in test [1] (setting [9]) and in test [2] (setting [11]) was at most 0.1 µM throughout.
As for `CCC1(c2cccc(-c3ccnc(C)c3)c2)C2=C(CC(C)(COC)NC2=O)Nc2n[nH]cc21` (stereo not drawn) [Compound 948493], the IC50 in test [1] (setting [3]) and in test [2] (setting [4]) was over 5 µM in each case.
As to `CC[C@]1(c2cccc(-c3ccncc3C)c2)C2=C(CC3(CCC3)NC2=O)Nc2n[nH]cc21` [Compound 948512], the IC50 in test [1] (setting [3]) is at most 0.1 µM; in test [1] (setting [7]), 0.1 to 1 µM; in test [2] (setting [4]) it was at most 0.1 µM; in test [2] (setting [8]), 1 to 5 µM.
As to `CC[C@]1(c2cccc(-c3ccnc(C)c3)c2)C2=C(CC3(CCOCC3)NC2=O)Nc2n[nH]c(C)c21` [Compound 948513], the figures for the IC50 in test [1] (setting [3]) and in test [2] (setting [4]) were at most 0.1 µM and 0.1 to 1 µM, respectively.
The corresponding values for `CCC1(c2cccc(-c3c(F)cncc3F)c2)C2=C(CC(C)(C)NC2=O)Nc2n[nH]cc21` (stereo not drawn) [Compound 948514] are 1 to 5 µM and over 5 µM.
As for `CCC1(c2cccc(-c3c(Cl)cncc3Cl)c2)C2=C(CC(C)(C)NC2=O)Nc2n[nH]cc21` (stereo not drawn) [Compound 948515], the IC50 was at most 0.1 µM in test [1] (setting [3]), at most 0.1 µM in test [1] (setting [7]), at most 0.1 µM in test [2] (setting [4]) and 0.1 to 1 µM in test [2] (setting [8]).
Regarding `CCC1(c2cccc(-c3ccnn3C)c2)C2=C(CC3(CCOCC3)NC2=O)Nc2n[nH]cc21` (stereo not drawn) [Compound 948516], the results for the IC50 in test [1] (setting [3]) and in test [2] (setting [4]) were at most 0.1 µM and 0.1 to 1 µM, respectively.
For `CC[C@]1(c2cccc(-c3ccnc4ccc(Cl)cc34)c2)C2=C(CC(C)(C)N(C)C2=O)Nc2n[nH]cc21` [Compound 948517], the IC50 in test [1] (setting [3]) and in test [2] (setting [4]) was at most 0.1 µM in each case.
For `CC[C@@]1(c2cccc(-c3ccnc4ccc(OC)cc34)c2)C2=C(CC(C)(C)NC2=O)Nc2n[nH]cc21` [Compound 948518], the IC50 in test [1] (setting [3]) and in test [2] (setting [4]) was over 5 µM each time.
In the case of `CC[C@@]1(c2cccc(-c3ccnc4cc(F)ccc34)c2)C2=C(CC(C)(C)NC2=O)Nc2n[nH]cc21` [Compound 948519], the IC50 in test [1] (setting [3]) and in test [2] (setting [4]) was over 5 µM in each case.
As for `CCC1(c2cccc(-c3ccnc(OC)c3F)c2)C2=C(CC(C)(C)NC2=O)Nc2n[nH]cc21` (stereo not drawn) [Compound 948520], the figures for the IC50 in test [1] (setting [3]) and in test [2] (setting [4]) were 0.1 to 1 µM and 1 to 5 µM, respectively.
In the same order, the values of `CCC1(c2cccc(-c3ccnc(C)c3)c2)C2=C(CC(C)(COC)NC2=O)Nc2n[nH]cc21` (stereo not drawn) [Compound 948521] are at most 0.1 µM and 1 to 5 µM.
Consider `CCC1(c2cccc(-c3ccnn3C)c2)C2=C(CC3(CCC3)NC2=O)Nc2n[nH]cc21` (stereo not drawn) [Compound 948522], for which the IC50 in test [1] (setting [3]) was 0.1 to 1 µM; in test [2] (setting [4]), over 5 µM.
Take `CCC1(c2cccc(-c3ccncc3C)c2)C2=C(CC3(CCC3)NC2=O)Nc2n[nH]cc21` (stereo not drawn) [Compound 948523]: the IC50 in test [1] (setting [3]) is at most 0.1 µM; in test [2] (setting [4]), 0.1 to 1 µM.
In the same order, the values of `CCC1(c2cccc(-c3ccnc(C)c3)c2)C2=C(CC3(CCOCC3)NC2=O)Nc2n[nH]cc21` (stereo not drawn) [Compound 948524] are 1 to 5 µM and over 5 µM.
Regarding `CC[C@]1(c2cccc(-c3ccnn3C)c2)C2=C(CC3(CCOCC3)NC2=O)Nc2n[nH]cc21` [Compound 948526], the IC50 was 1 to 5 µM in test [1] (setting [3]) and over 5 µM in test [2] (setting [4]).
The corresponding values for `CC[C@]1(c2cccc(-c3ccnc4cc(F)ccc34)c2)C2=C(CC(C)(C)NC2=O)Nc2n[nH]cc21` [Compound 948528] are at most 0.1 µM and 0.1 to 1 µM.
Consider `CCC1(c2cccc(-c3c(F)cncc3OC)c2)C2=C(Nc3n[nH]cc31)C(F)C(C)(C)CC2=O` (stereo not drawn) [Compound 948545, 4-ethyl-8-fluoro-4-(3-(3-fluoro-5-methoxypyridin-4-yl)phenyl)-7,7-dimethyl-2,4,6,7,8,9-hexahydro-SH-pyrazolo[3,4-b]quinolin-5-one], for which the IC50 in test [1] (setting [5]) was at most 0.1 µM; in test [1] (setting [7]), at most 0.1 µM; in test [2] (setting [6]), at most 0.1 µM; in test [2] (setting [8]) it was 0.1 to 1 µM.
Regarding `CCC1(c2cccc(-c3c(F)cncc3OC)c2)C2=C(Nc3n[nH]cc31)C(F)C(C)(C)CC2=O` (stereo not drawn) [Compound 948547, 4-ethyl-8-fluoro-4-(3-(3-fluoro-5-methoxypyridin-4-yl)phenyl)-7,7-dimethyl-2,4,6,7,8,9-hexahydro-SH-pyrazolo[3,4-b]quinolin-5-one], the IC50 is at most 0.1 µM in test [1] (setting [5]), 0.1 to 1 µM in test [1] (setting [7]), at most 0.1 µM in test [2] (setting [6]) and 1 to 5 µM in test [2] (setting [8]).
In the case of `CCC1(c2cccc(-c3c(F)cncc3OC)c2)C2=C(Nc3n[nH]cc31)C(F)C(C)(C)CC2=O` (stereo not drawn) [Compound 948548, 4-ethyl-8-fluoro-4-(3-(3-fluoro-5-methoxypyridin-4-yl)phenyl)-7,7-dimethyl-2,4,6,7,8,9-hexahydro-SH-pyrazolo[3,4-b]quinolin-5-one], the figures for the IC50 in test [1] (setting [5]) and in test [2] (setting [6]) were at most 0.1 µM and 0.1 to 1 µM, respectively.
With `CCC1(c2cccc(-c3c(F)cncc3OC)c2)C2=C(CN(Cc3ccccc3)C2=O)Nc2n[nH]cc21` (stereo not drawn) [Compound 948550], the IC50 is at most 0.1 µM in test [1] (setting [9]) and 0.1 to 1 µM in test [2] (setting [11]).
In the same order, the values of `CCC1(c2cccc(-c3ccnc4c3CCCC4)c2)C2=C(CN(Cc3ccccc3)C2=O)Nc2n[nH]cc21` (stereo not drawn) [Compound 948551] are at most 0.1 µM and 0.1 to 1 µM.
The corresponding values for `CC[C@]1(c2cccc(-c3ccnc4c3CCCC4)c2)C2=C(CN(Cc3ccccc3)C2=O)Nc2n[nH]cc21` [Compound 948552] are 0.1 to 1 µM and over 5 µM.
For `CCC1(c2cccc(C(F)(F)C(F)(F)F)c2)C2=C(CC(C)(C)CC2=O)Nc2n[nH]cc21` (stereo not drawn) [Compound 948615], the IC50 in test [1] (setting [5]) and in test [2] (setting [6]) was at most 0.1 µM throughout.
As to `CCC1(c2cccc(-c3ccnc4cc(F)c(F)cc34)c2)C2=C(CC(C)(C)NC2=O)Nc2n[nH]cc21` (stereo not drawn) [Compound 948638], the IC50 in test [1] (setting [3]) and in test [2] (setting [4]) was over 5 µM throughout.
With `CCc1cnccc1-c1cccc([C@]2(CC)C3=C(CC(C)(C)NC3=O)Nc3n[nH]cc32)c1` [Compound 948639], the IC50 was at most 0.1 µM in test [1] (setting [3]) and 0.1 to 1 µM in test [2] (setting [4]).
Regarding `CCC1(c2cccc(-c3ccnc(C)c3)c2)C2=C(CC3(CCCC3)NC2=O)Nc2n[nH]cc21` (stereo not drawn) [Compound 948641], the IC50 in test [1] (setting [3]) and in test [2] (setting [4]) was over 5 µM in each case.
For the compound `CC[C@@]1(c2cccc(-c3ccncc3C3CC3)c2)C2=C(CC(C)(C)NC2=O)Nc2n[nH]cc21` [Compound 948642], the IC50 is 0.1 to 1 µM in test [1] (setting [3]) and 1 to 5 µM in test [2] (setting [4]).
The corresponding values for `CC[C@@]1(c2cccc(-c3ccncc3OC3CC3)c2)C2=C(CC(C)(C)NC2=O)Nc2n[nH]cc21` [Compound 948643] are over 5 µM and over 5 µM.

(Values after patent US20250313563A1, “GLYCOGEN SYNTHASE KINASE 3 INHIBITORS AND USES THEREOF” (The Broad Institute, Inc., priority 2022, published 2025).)
